Results: the OligoGym collection
Only the 19 paired bases of each siRNA are shown; overhangs and chemistry are not given here.

These substances were tested against PPIB (assay: five studies, different assays). Conditions: siRNA.
Further: test concentration or dose not given here.

Going from “sense GGGCGGAGACUUCACCAGG / antisense CCUGGUGAAGUCUCCGCCC” to “sense GAGAAAGGAUUUGGCUACA / antisense UGUAGCCAAAUCCUUUCUC”, the target inhibition rises from 89% to 92.3%.

Compared with “sense GAGAUGGCACAGGAGGAAA / antisense UUUCCUCCUGUGCCAUCUC”, “sense UCCAAAAACAGUGGAUAAU / antisense AUUAUCCACUGUUUUUGGA” is higher in target inhibition: 70.5% for the first, 75.3% for the second.

Compared with “sense AUGAUCCAGGGCGGAGACU / antisense AGUCUCCGCCCUGGAUCAU”, “sense UUAGCUACAGGAGAGAAAG / antisense CUUUCUCUCCUGUAGCUAA” is lower in target inhibition: 48.5% for the first, 30.7% for the second.

Going from “sense CCAUCGUGUAAUCAAGGAC / antisense GUCCUUGAUUACACGAUGG” to “sense GAUGAGAACUUCAAACUGA / antisense UCAGUUUGAAGUUCUCAUC”, the target inhibition rises from 87.4% to 89.7%.

Going from “sense AGCAUCUACGGUGAGCGCU / antisense AGCGCUCACCGUAGAUGCU” to “sense GUGAGCGCUUCCCCGAUGA / antisense UCAUCGGGGAAGCGCUCAC”, the target inhibition rises from 64.1% to 83.9%.

First: sense GUGGAUAAUUUUGUGGCCU / antisense AGGCCACAAAAUUAUCCAC
Second: sense CGUGUAAUCAAGGACUUCA / antisense UGAAGUCCUUGAUUACACG
The target inhibition of the first is lower: 55% for the first, 88.8% for the second.

Compared with “sense UGAGAACUUCAAACUGAAG / antisense CUUCAGUUUGAAGUUCUCA”, “sense ACAGCAAAUUCCAUCGUGU / antisense ACACGAUGGAAUUUGCUGU” is higher in target inhibition: 41.7% for the first, 91.9% for the second.

First: sense AACAGUGGAUAAUUUUGUG / antisense CACAAAAUUAUCCACUGUU
Second: sense AGACUUCACCAGGGGAGAU / antisense AUCUCCCCUGGUGAAGUCU
The target inhibition of the first is lower: 16.3% for the first, 87.6% for the second.

Compared with “sense UUGUGGCCUUAGCUACAGG / antisense CCUGUAGCUAAGGCCACAA”, “sense AAACAGCAAAUUCCAUCGU / antisense ACGAUGGAAUUUGCUGUUU” is lower in target inhibition: 16% for the first, 7.3% for the second.

First: sense UUUUGUGGCCUUAGCUACA / antisense UGUAGCUAAGGCCACAAAA
Second: sense CAGUGGAUAAUUUUGUGGC / antisense GCCACAAAAUUAUCCACUG
The target inhibition of the first is higher: 52% for the first, 39.7% for the second.

“sense GAUCCAGGGCGGAGACUUC / antisense GAAGUCUCCGCCCUGGAUC” and “sense GCGCUUCCCCGAUGAGAAC / antisense GUUCUCAUCGGGGAAGCGC” are the same in target inhibition: 92.7% for the first, 92.7% for the second.

First: sense GGAAAGAGCAUCUACGGUG / antisense CACCGUAGAUGCUCUUUCC
Second: sense AGAGCAUCUACGGUGAGCG / antisense CGCUCACCGUAGAUGCUCU
The target inhibition of the first is higher: 93.3% for the first, 71.7% for the second.

First: sense CUACAGGAGAGAAAGGAUU / antisense AAUCCUUUCUCUCCUGUAG
Second: sense CAAAUUCCAUCGUGUAAUC / antisense GAUUACACGAUGGAAUUUG
The target inhibition of the first is higher: 93.9% for the first, 92.3% for the second.

Compared with “sense UUCCCCGAUGAGAACUUCA / antisense UGAAGUUCUCAUCGGGGAA”, “sense CUACAAAAACAGCAAAUUC / antisense GAAUUUGCUGUUUUUGUAG” is lower in target inhibition: 83.8% for the first, 71.2% for the second.

Compared with “sense AGCAAAUUCCAUCGUGUAA / antisense UUACACGAUGGAAUUUGCU”, “sense UCUACGGUGAGCGCUUCCC / antisense GGGAAGCGCUCACCGUAGA” is lower in target inhibition: 86.4% for the first, 2.8% for the second.

Going from “sense CCAGGGGAGAUGGCACAGG / antisense CCUGUGCCAUCUCCCCUGG” to “sense CCGAUGAGAACUUCAAACU / antisense AGUUUGAAGUUCUCAUCGG”, the target inhibition rises from 21.4% to 85.1%.

Compared with “sense AGGAGAGAAAGGAUUUGGC / antisense GCCAAAUCCUUUCUCUCCU”, “sense UUGGCUACAAAAACAGCAA / antisense UUGCUGUUUUUGUAGCCAA” is lower in target inhibition: 88.4% for the first, 68% for the second.

First: sense AGGACUUCAUGAUCCAGGG / antisense CCCUGGAUCAUGAAGUCCU
Second: sense CCUUAGCUACAGGAGAGAA / antisense UUCUCUCCUGUAGCUAAGG
The target inhibition of the first is higher: 82.9% for the first, 77.2% for the second.

First: sense AAUUCCAUCGUGUAAUCAA / antisense UUGAUUACACGAUGGAAUU
Second: sense GAUGGCACAGGAGGAAAGA / antisense UCUUUCCUCCUGUGCCAUC
The target inhibition of the first is higher: 87.4% for the first, 84.9% for the second.

Compared with “sense UGGCACAGGAGGAAAGAGC / antisense GCUCUUUCCUCCUGUGCCA”, “sense GAGGAAAGAGCAUCUACGG / antisense CCGUAGAUGCUCUUUCCUC” is higher in target inhibition: 55.9% for the first, 58.4% for the second.

First: sense UCCAGGGCGGAGACUUCAC / antisense GUGAAGUCUCCGCCCUGGA
Second: sense GGGAGAUGGCACAGGAGGA / antisense UCCUCCUGUGCCAUCUCCC
The target inhibition of the first is lower: 41.8% for the first, 80.4% for the second.

Compared with “sense AAGGAUUUGGCUACAAAAA / antisense UUUUUGUAGCCAAAUCCUU”, “sense GAAAGGAUUUGGCUACAAA / antisense UUUGUAGCCAAAUCCUUUC” is higher in target inhibition: 81.9% for the first, 94.2% for the second.

Compared with “sense AGAACUUCAAACUGAAGCA / antisense UGCUUCAGUUUGAAGUUCU”, “sense ACAGGAGAGAAAGGAUUUG / antisense CAAAUCCUUUCUCUCCUGU” is higher in target inhibition: 45.4% for the first, 84.9% for the second.

Going from “sense UUCCAUCGUGUAAUCAAGG / antisense CCUUGAUUACACGAUGGAA” to “sense AGCUACAGGAGAGAAAGGA / antisense UCCUUUCUCUCCUGUAGCU”, the target inhibition rises from 45.9% to 75.8%.

First: sense CAGGGCGGAGACUUCACCA / antisense UGGUGAAGUCUCCGCCCUG
Second: sense AAUUUUGUGGCCUUAGCUA / antisense UAGCUAAGGCCACAAAAUU
The target inhibition of the first is lower: 46.8% for the first, 81.3% for the second.

First: sense AAAACAGUGGAUAAUUUUG / antisense CAAAAUUAUCCACUGUUUU
Second: sense UGUAAUCAAGGACUUCAUG / antisense CAUGAAGUCCUUGAUUACA
The target inhibition of the first is lower: 49.5% for the first, 63.9% for the second.

Compared with “sense GAGCGCUUCCCCGAUGAGA / antisense UCUCAUCGGGGAAGCGCUC”, “sense UCAAACUGAAGCACUACGG / antisense CCGUAGUGCUUCAGUUUGA” is lower in target inhibition: 86.5% for the first, 18.1% for the second.

First: sense ACUUCACCAGGGGAGAUGG / antisense CCAUCUCCCCUGGUGAAGU
Second: sense CAUCUACGGUGAGCGCUUC / antisense GAAGCGCUCACCGUAGAUG
The target inhibition of the first is lower: 41.9% for the first, 89% for the second.

Going from “sense UACGGUGAGCGCUUCCCCG / antisense CGGGGAAGCGCUCACCGUA” to “sense GGAUAAUUUUGUGGCCUUA / antisense UAAGGCCACAAAAUUAUCC”, the target inhibition rises from -9.9% to 83.9%.

Compared with “sense ACAAAAACAGCAAAUUCCA / antisense UGGAAUUUGCUGUUUUUGU”, “sense CCCCGAUGAGAACUUCAAA / antisense UUUGAAGUUCUCAUCGGGG” is higher in target inhibition: 78.5% for the first, 84.7% for the second.

First: sense CUUCAAACUGAAGCACUAC / antisense GUAGUGCUUCAGUUUGAAG
Second: sense AAAGAGCAUCUACGGUGAG / antisense CUCACCGUAGAUGCUCUUU
The target inhibition of the first is higher: 73.1% for the first, 50.7% for the second.

Compared with “sense AUCGUGUAAUCAAGGACUU / antisense AAGUCCUUGAUUACACGAU”, “sense UAAUCAAGGACUUCAUGAU / antisense AUCAUGAAGUCCUUGAUUA” is higher in target inhibition: 86.7% for the first, 87.9% for the second.

Compared with “sense AGGAGGAAAGAGCAUCUAC / antisense GUAGAUGCUCUUUCCUCCU”, “sense AACUUCAAACUGAAGCACU / antisense AGUGCUUCAGUUUGAAGUU” is higher in target inhibition: 58.9% for the first, 69.2% for the second.

Going from “sense GCGGAGACUUCACCAGGGG / antisense CCCCUGGUGAAGUCUCCGC” to “sense CACCAGGGGAGAUGGCACA / antisense UGUGCCAUCUCCCCUGGUG”, the target inhibition falls from 76.6% to 73.8%.

Compared with “sense CAAAAACAGUGGAUAAUUU / antisense AAAUUAUCCACUGUUUUUG”, “sense AUUUGGCUACAAAAACAGC / antisense GCUGUUUUUGUAGCCAAAU” is lower in target inhibition: 90.2% for the first, 13.8% for the second.

First: sense GCUUCCCCGAUGAGAACUU / antisense AAGUUCUCAUCGGGGAAGC
Second: sense CUUCAUGAUCCAGGGCGGA / antisense UCCGCCCUGGAUCAUGAAG
The target inhibition of the first is lower: 67.8% for the first, 88.7% for the second.

Going from “sense GGAGACUUCACCAGGGGAG / antisense CUCCCCUGGUGAAGUCUCC” to “sense AAAAACAGCAAAUUCCAUC / antisense GAUGGAAUUUGCUGUUUUU”, the target inhibition falls from 80.9% to 7.6%.

Each substance was assayed against LMNA (assay: five studies, different assays). Conditions: siRNA.

First: sense GAGCUGGAGAAGACUUAUU / antisense AAUAAGUCUUCUCCAGCUC
Second: sense UCUGGUCACCCGCUCCUAC / antisense GUAGGAGCGGGUGACCAGA
The target inhibition of the first is higher: 96% for the first, 83% for the second.

Compared with “sense CUGGACUUCCAGAAGAACA / antisense UGUUCUUCUGGAAGUCCAG”, “sense GGAGCUGGAGAAGACUUAU / antisense AUAAGUCUUCUCCAGCUCC” is lower in target inhibition: 98% for the first, 95% for the second.

First: sense AAGGAGCUGGAGAAGACUU / antisense AAGUCUUCUCCAGCUCCUU
Second: sense GUUAUUUUCUACAGUGGUU / antisense AACCACUGUAGAAAAUAAC
The target inhibition of the first is lower: 91% for the first, 98% for the second.

Going from “sense CAGUAUAAGAAGGAGCUGG / antisense CCAGCUCCUUCUUAUACUG” to “sense GCAGUAUAAGAAGGAGCUG / antisense CAGCUCCUUCUUAUACUGC”, the target inhibition falls from 95% to 82%.

Going from “sense AGUAUAAGAAGGAGCUGGA / antisense UCCAGCUCCUUCUUAUACU” to “sense GCCAAAGAAAAAUAACCCU / antisense AGGGUUAUUUUUCUUUGGC”, the target inhibition rises from 95% to 96%.

First: sense UGCCAGGCAGUCUGCUGAG / antisense CUCAGCAGACUGCCUGGCA
Second: sense GAGGUGGUCAGCCGCGAGG / antisense CCUCGCGGCUGACCACCUC
The target inhibition of the first is higher: 81% for the first, 80% for the second.

Going from “sense GGCACAGAACACCUGGGGC / antisense GCCCCAGGUGUUCUGUGCC” to “sense GAAGUGGCCAUGCGCAAGC / antisense GCUUGCGCAUGGCCACUUC”, the target inhibition falls from 86% to 70%.

“sense CAAGUCCAAUGAGGACCAG / antisense CUGGUCCUCAUUGGACUUG” showed a target inhibition of 79%.
